Legend:
TLR4 = biological target: T1, TLR4 (Mus musculus, UniProt Q9QUK6); assay: Suppressive effect on NO production (LPS-stimulated RAW264.7); format: cell-based; settings: mouse macrophage cell line RAW264.7; compound final concentration 10 nM; LPS 1.25 ng/ml + mouse interferon gamma 0.2 ng/ml; nitrite ion in culture supernatant (DAN fluorescence)
T1 construct: measured using mouse macrophage cell line RAW264.7; endogenous in cells; host or cells: RAW264.7 (mouse macrophage cell line)
T1 sequence (Q9QUK6 26-835): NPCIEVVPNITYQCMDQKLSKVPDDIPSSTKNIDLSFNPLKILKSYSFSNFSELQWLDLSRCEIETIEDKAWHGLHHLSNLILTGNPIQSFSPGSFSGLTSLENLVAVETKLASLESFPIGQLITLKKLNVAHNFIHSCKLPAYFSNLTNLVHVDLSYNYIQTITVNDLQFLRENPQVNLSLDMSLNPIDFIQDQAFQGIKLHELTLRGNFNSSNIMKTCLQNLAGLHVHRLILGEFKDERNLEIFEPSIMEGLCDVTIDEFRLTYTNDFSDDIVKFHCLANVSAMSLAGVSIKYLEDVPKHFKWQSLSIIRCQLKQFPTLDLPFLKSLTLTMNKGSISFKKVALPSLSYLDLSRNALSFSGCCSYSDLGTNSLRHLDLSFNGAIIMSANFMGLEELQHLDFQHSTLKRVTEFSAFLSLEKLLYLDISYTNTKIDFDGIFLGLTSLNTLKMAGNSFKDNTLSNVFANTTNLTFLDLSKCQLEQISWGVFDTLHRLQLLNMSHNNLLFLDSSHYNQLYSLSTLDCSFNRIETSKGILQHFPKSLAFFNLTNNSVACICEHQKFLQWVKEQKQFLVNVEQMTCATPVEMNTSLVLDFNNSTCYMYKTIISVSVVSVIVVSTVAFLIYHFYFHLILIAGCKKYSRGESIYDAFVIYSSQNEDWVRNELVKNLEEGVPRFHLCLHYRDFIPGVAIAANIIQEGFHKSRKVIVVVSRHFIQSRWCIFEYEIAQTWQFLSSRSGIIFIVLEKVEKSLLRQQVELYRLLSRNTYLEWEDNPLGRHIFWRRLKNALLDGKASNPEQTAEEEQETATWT
T1 sequence (Q9JHF9 19-160 partner): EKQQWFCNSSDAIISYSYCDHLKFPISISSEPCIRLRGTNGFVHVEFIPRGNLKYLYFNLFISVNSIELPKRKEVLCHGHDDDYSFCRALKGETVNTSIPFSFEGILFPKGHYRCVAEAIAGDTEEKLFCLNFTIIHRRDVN
Experimental: The suppressive activity on TLR4 was measured using mouse macrophage cell line RAW264.7 and by an inhibition ratio by the test compound (compound of Example 1) against NO produced by the addition of lipopolysaccharide (LPS). The cells were prepared at 2×10^6 cells/ml in RPMI-1640 medium (phenol red free) supplemented with 10% inactivated fetal calf serum, and seeded in a 384-well plate at 6×10^4 cells/30 μL per well. The cells were cultured overnight at 37° C. under 5% CO2/95% air. The test compound dissolved in DMSO was diluted 200-fold with RPMI-1640 medium to a compound concentration of […]. The prepared test compound (10 μL) was added to the cells (final concentration 10 nM), and LPS (Sigma Ltd.) and mouse interferon gamma (Wako Pure Chemical Industries, Ltd.) were respectively added by 10 μL to the final concentrations of 1.25 ng/ml and 0.2 ng/ml. After further culturing overnight, the concentration of nitrite ion (stable metabolite of NO) in the culture supernatant was measured and used as an index of NO production. The nitrite ion concentration was quantified by adding 10 μL of a solution of 20 μg/mL 2,3-diaminonaphthalene (DAN) in 0.2N HCl to the culture supernatant (20 μL), incubating the mixture at room temperature for 10 min, adding 0.5N NaOH (10 μL), and measuring 460 nm (excitation wavelength 355 nm) fluorescence value by a plate reader EnVision (PerkinElmer). […]

melting point: 155 to 156 °C
NO production suppression effect at 10 nM (% inhibition) (TLR4): 98 % inhibition
Structure (SMILES): CCOC(=O)C1=C[C@@H](O)CC[C@H]1S(=O)(=O)Cc1ccc(F)cc1Cl (single isomer, unassigned) [Example 1]
